# Laboratory results from article PMC7780097, “Asn‐linked N–acetylglucosamine of the amylin receptor 2 extracellular domain enhances peptide ligand affinity” (FEBS Open Bio, 2020).
# Assays:
# AMY = system: AMY; set-up: method as in PMID 15692146; details: cited from earlier work
# [1] = molecular target: RAMP2 ECD:CTR ECD complex (Endo H‐treated CTR ECD WT) (Homo sapiens, UniProt O60895+P30988); assay: FP peptide binding assay, RAMP2 ECD 100 μM coincubation with Endo H-treated CTR ECD WT (AMY2 ECD); details: Discussion summary of Fig. 4B
# Chain of RAMP2 ECD:CTR ECD complex (Endo H‐treated CTR ECD WT) (P30988 38-141): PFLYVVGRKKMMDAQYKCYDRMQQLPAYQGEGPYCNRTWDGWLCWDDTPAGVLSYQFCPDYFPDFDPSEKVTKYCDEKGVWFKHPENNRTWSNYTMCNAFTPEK
# Chain of RAMP2 ECD:CTR ECD complex (Endo H‐treated CTR ECD WT) (O60895 55-140): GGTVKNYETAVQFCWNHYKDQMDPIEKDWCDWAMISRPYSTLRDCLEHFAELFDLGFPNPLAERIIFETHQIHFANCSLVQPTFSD
# Experimental: The expression and purification procedure of Endo H‐treated CTR ECD WT and N130D was previously reported. […] After TEV protease reaction, N‐glycans of the protein were trimmed with 1 : 10 ratio Endo H (w/w, Endo H : protein) overnight at 4 °C, while dialyzing to 25 mM MOPS (pH 6.5) and 150 mM NaCl. Next day, the pH was increased to pH 7.5 and the protein was purified with IMAC and following SEC. The final peak fractions were dialyzed to storage buffer and stored at −80 °C until use.
# The expression and purification of glycan‐free RAMP2 ECD were previously reported except for using RAMP2.55‐140 instead of RAMP2.36‐140 [15]. Briefly, MBP‐Thrombin cleavage site‐hRAMP2.55‐140‐H6 was expressed in the E. coli strain Origami B DE3. The cells were lysed by sonication and spun down by centrifugation. The supernatant was purified with IMAC and following amylose affinity chromatography. Human α‐thrombin was used to cleave out MBP, and the reaction mixture was loaded to IMAC to remove untagged MBP and thrombin. The RAMP2 ECD was further purified with SEC, and the peak fractions were dialyzed to storage buffer and stored at −80 °C until use. RAMP2 ECD without an MBP‐tag was also purified as follows. hRAMP2.55‐140‐H6 was expressed in the E. coli strain Origami B DE3. The bacterial cells were lysed by sonication using Bioruptor® standard (Diagenode Inc., Denville, NJ, USA). […]
# full‐length CTR = details: cited from earlier work
# From the text: The calcitonin receptor (CTR) is a class B GPCR for peptide hormone calcitonin that regulates calcium homeostasis. CTR has an ECD with four N‐glycosylation sites: N28, N73, N125, and N130. […] My colleagues and I reported that N‐glycosylation of CTR enhanced salmon calcitonin (sCT) affinity for CTR ECD by sevenfold and that the asp ...
# CTR ECD = details: cited from earlier work
# From the text: The calcitonin receptor (CTR) is a class B GPCR for peptide hormone calcitonin that regulates calcium homeostasis. CTR has an ECD with four N‐glycosylation sites: N28, N73, N125, and N130. […] Unexpectedly, the crystal structures of Endo H‐treated/Asn‐linked GlcNAc‐containing CTR ECD were almost identical to the structure of glycan‐free CTR ECD with a subtle structural difference. Direct interaction between the Asn‐linked GlcNAc and peptide hormone sCT was not found in the crystal structures ruling out the hypothesis of direct interaction between them. We also examined whether CTR ECD residues near the Asn‐linked GlcNAc of N130 medi ...
# [2] = system: glycosylated CTR ECD[N130D]; assay: FP peptide binding assay, glycosylated CTR ECD[N130D] with or without PNGase F treatment; details: PNGase F treatment vs No PNGase F treatment; Fig. 2A
# Experimental: (§1) pHLsec‐based vectors were used to obtain glycosylated CTR ECD from HEK293S GnTI^− cells as a secreted protein. Maltose‐binding protein (MBP) was fused to the CTR ECD to increase initial protein expression and purification.
# (§2) MBP‐TEV cleavage site‐CTR ECD WT was expressed from HEK293S GnTI^− cells for 3 days after plasmid transfection with polyethyleneimine (PEI). All protein purification steps were performed at 4 °C, otherwise noted. The expressed protein was purified with immobilized Ni metal affinity chromatography (IMAC). The peak fractions were pooled and incubated with 1 : 5 ratio TEV protease (w/w, TEV protease: protein) for 6 h at 20 °C. The reaction mixture was spin‐concentrated (MWCO 10 kDa) and loaded to size‐exclusion chromatography (SEC). The fractions with expected CTR ECD WT molecular weight were collected, spin‐concentrated, and used for PNGase F reaction and following peptide binding assay. […]
# (§3) The procedure of fluorescence polarization (FP) peptide binding assay was previously described [4]. FITC‐sCT(22–32), FITC‐AC413(6–25), and FITC‐AM(37–52)[S45W/Q50W] were used as fluorescence‐labeled peptide probes. […] A PolarStar Omega plate reader (BMG Labtech, Cary, NC, USA) or a SpectraiD5 (Molecular Devices, San Jose, CA, USA) was used to measure FP. Background‐subtracted fluorescence intensity was used to calculate anisotropy.
# [3] = molecular target: T1, glycosylated CTR ECD[N130D] (Homo sapiens, UniProt P30988, N130D); assay: as above; details: heat‐inactivated PNGase F vs No PNGase F; Fig. 2A
# T1 sequence (P30988 38-141 N130D): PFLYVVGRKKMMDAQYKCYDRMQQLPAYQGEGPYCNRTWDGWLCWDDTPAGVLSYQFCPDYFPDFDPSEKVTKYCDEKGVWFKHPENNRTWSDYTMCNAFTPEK
# Experimental: as §1, §2, §3
# CTR = system: CTR; set-up: method as in PMID 15692146; details: cited from earlier work
# [4] = by the Asn‐linked GlcNAc of CTR N130
substance,measurement,setting,value
salmon calcitonin [sCT],agonist activity,AMY,high affinity agonist
same,"sCT affinity for AMY2 ECD, effect of the Asn‐linked GlcNAc of CTR N130",[1],increased
same,"affinity, effect of N‐glycosylation of CTR ECD N130",full‐length CTR,enhanced
same,fold enhancement of affinity by N‐glycosylation,CTR ECD; N‐glycosylation of CTR,sevenfold
same,decrease of dissociation rate,CTR ECD; [4],twofold
same,fold affinity enhancement,CTR ECD; [4],sixfold
same,increase of association rate,CTR ECD; [4],threefold
same,fold decrease in affinity,[2],1.7 fold
same,effect of heat‐inactivated PNGase F on affinity,[3],did not change
same,agonist activity,CTR,high affinity agonist
